Assay [1] concerns CEM-SS. The assay can be described thus: Compound was evaluated for antiviral activity against CEM SS cells infected with HIV-1(LAI strain). It is filed as functional, cell-based. The following applies: Homo sapiens.
The test system of assay [2] is CEM-SS. The assay can be described thus: Compound was evaluated for cytotoxicity against CEM SS cells infected with HIV-1(LAI strain). It is filed as functional. The following applies: Homo sapiens.

pIC50: −log10 of the molar value.

As to `CCc1c(C)nc(Cl)c([N+](=O)[O-])c1[S+]([O-])c1cc(C)cc(C)c1` (configuration not stated), the pIC50 in assay [1] was 5.52. The molecule further had a CC50 in assay [2] of 8 µM.
Taken in the same sequence, the figures for `CCc1c(C)nc(O)c([N+](=O)[O-])c1Sc1cc(C)cc(C)c1` were 5.22 and more than 10 µM.
Turning to `Cc1cc(C)cc(Sc2cc(CCCO)nc(O)c2[N+](=O)[O-])c1`, the pIC50 in assay [1] is 5.10. The molecule also yielded a CC50 in assay [2] of more than 1 µM.
Taken in the same sequence, the figures for `CCc1c(C)nc(Cl)c([N+](=O)[O-])c1Sc1cc(C)cc(C)c1` were 5.10 and more than 1 µM.
Taken in the same sequence, the figures for `CC(=O)OCCCc1cc(Sc2cc(C)cc(C)c2)c([N+](=O)[O-])c(O)n1` were 6.00 and more than 1 µM.
In the same order, the values of `Cc1cn([C@H]2C[C@H](N=[N+]=[N-])[C@@H](CO)O2)c(=O)[nH]c1=O` [ZIDOVUDINE] are 5.52 and more than 10 µM.

(Values after ChEMBL document CHEMBL1129186, “Synthesis of new non-nucleoside inhibitors of HIV-1” (Bioorg Med Chem Lett, 1996).)
